ChEMBL document CHEMBL5380796, “Small Molecular Mimetics of Antimicrobial Peptides as a Promising Therapy To Combat Bacterial Resistance” (J Med Chem, 2023)
Converted amounts (≈) assume the structure as drawn. Each block holds one compound with its values, some of them ahead of it. Non-standard residues stand in square brackets, D forms with d. Residues, ends and D or L forms follow the SMILES beside them. Dip = N[C@H](C(=O)O)C(c1ccccc1)c1ccccc1; 2Nal = N[C@@H](Cc1ccc2ccccc2c1)C(=O)O

Assays:
[1] = system: Staphylococcus aureus; assay: Antibacterial activity against Staphylococcus aureus assessed as bacterial growth inhibition; format: functional
[2] = system: Escherichia coli; assay: Antibacterial activity against Escherichia coli assessed as bacterial growth inhibition; format: functional
[3] = system: Micrococcus luteus; assay: Antibacterial activity against Micrococcus luteus DSM 1790 assessed as bacterial growth inhibition by microdilution assay; format: functional
[4] = system: Staphylococcus aureus; assay: Antibacterial activity against Staphylococcus aureus ATCC 25923 assessed as bacterial growth inhibition by microdilution assay; format: functional
[5] = system: Staphylococcus aureus; assay: Antibacterial activity against Staphylococcus aureus ATCC 25923 assessed as bacterial growth inhibition; format: functional
[6] = system: Staphylococcus aureus; assay: Antibacterial activity against Staphylococcus aureus assessed as bacterial growth inhibition measured after 24 hrs by CLSI based micro broth double dilution method; format: functional
[7] = system: Escherichia coli; assay: Antibacterial activity against Escherichia coli assessed as bacterial growth inhibition measured after 24 hrs by CLSI based micro broth double dilution method; format: functional
[8] = system: Staphylococcus aureus; assay: Antibacterial activity against methicillin-resistant Staphylococcus aureus ATCC 33591 assessed as bacterial growth inhibition; format: functional
[9] = system: Pseudomonas aeruginosa; assay: Antibacterial activity against Pseudomonas aeruginosa ATCC 27853 assessed as bacterial growth inhibition; format: functional; settings: ATCC27853
[10] = system: Escherichia coli; assay: Antibacterial activity against Escherichia coli ATCC 25922 assessed as bacterial growth inhibition; format: functional
[11] = system: Clostridioides difficile; assay: Antibacterial activity against Clostridium difficile UK6 assessed as bacterial growth inhibition; format: functional
[12] = system: Klebsiella pneumoniae; assay: Antibacterial activity against Klebsiella pneumoniae ATCC 13383 assessed as bacterial growth inhibition; format: functional
[13] = system: Staphylococcus epidermidis; assay: Antibacterial activity against methicillin-resistant Staphylococcus epidermidis RP62A assessed as bacterial growth inhibition; format: functional
[14] = system: Enterococcus; assay: Antibacterial activity against […] assessed as bacterial growth inhibition; format: functional
[15] = system: Escherichia coli; assay: Antibacterial activity against Escherichia coli ATCC 25922 assessed as bacterial growth inhibition incubated for 12 to 16 hrs by microtiter plate reader based analysis; format: functional; settings: time 12-16 hrs
[16] = system: Pseudomonas aeruginosa; assay: Antibacterial activity against Pseudomonas aeruginosa ATCC 27853 assessed as bacterial growth inhibition incubated for 12 to 16 hrs by microtiter plate reader based analysis; format: functional; settings: time 12-16 hrs
[17] = system: Staphylococcus aureus; assay: Antibacterial activity against methicillin-resistant Staphylococcus aureus ATCC 33592 assessed as bacterial growth inhibition incubated for 12 to 16 hrs by microtiter plate reader based analysis; format: functional; settings: time 12-16 hrs
[18] = system: Staphylococcus epidermidis; assay: Antibacterial activity against methicillin-resistant Staphylococcus epidermidis RP62A assessed as bacterial growth inhibition incubated for 12 to 16 hrs by microtiter plate reader based analysis; format: functional; settings: time 12-16 hrs
[19] = system: Enterococcus faecalis; assay: Antibacterial activity against vancomycin- resistant Enterococcus faecalis ATCC 700802 assessed as bacterial growth inhibition incubated for 12 to 16 hrs by microtiter plate reader based analysis; format: functional; settings: ATCC700802, time 12-16 hrs
[20] = Hemolytic activity in human RBC incubated for 10 mins by absorbance based analysis; format: toxicity, cell-based, Erythrocyte; settings: red blood cells (erythrocytes)
[21] = system: Pseudomonas aeruginosa; assay: Antibacterial activity against Pseudomonas aeruginosa assessed as bacterial growth inhibition; format: functional
[22] = system: Klebsiella pneumoniae; assay: Antibacterial activity against Klebsiella pneumoniae assessed as bacterial growth inhibition; format: functional
[23] = Cytotoxicity against mouse 3T3 cells assessed as reduction in cell viability; format: toxicity, cell-based; settings: NIH3T3 cells
[24] = Cytotoxicity against human HepG2 cells assessed as reduction in cell viability; format: toxicity, cell-based
[25] = system: Staphylococcus aureus; assay: Antibacterial activity against methicillin-resistant Staphylococcus aureus assessed as bacterial growth inhibition by broth microdilution method; format: functional
[26] = system: Escherichia coli; assay: Antibacterial activity against Escherichia coli assessed as bacterial growth inhibition by broth microdilution method; format: functional

Compound: CCCOc1c2cc(C[N+](C)(C)C)cc1Cc1cc(C[N+](C)(C)C)cc(c1OCCC)Cc1cc(C[N+](C)(C)C)cc(c1OCCC)Cc1cc(C[N+](C)(C)C)cc(c1OCCC)C2
MIC [6]: 16 µg/mL
MIC [7]: 16 µg/mL

Compound: CCCCCCN1C(=N)N(CC(=O)Nc2cccc(NC(=O)CN3C[C@H](Cc4ccccc4)N(CCCCCC)C3=N)c2)C[C@@H]1Cc1ccccc1
MIC [8]: 0.16 µg/mL (≈ 0.226 µM)
MIC [9]: 6 µg/mL (≈ 8.49 µM)
MIC [10]: 1.5 µg/mL (≈ 2.12 µM)
MIC [11]: 1 µg/mL (≈ 1.41 µM)
MIC [12]: 1.5 µg/mL (≈ 2.12 µM)
MIC [13]: 0.75 µg/mL (≈ 1.06 µM)
MIC [14]: 0.75 µg/mL (≈ 1.06 µM)

Compound: CCCCCCCCCCCCCCCC(=O)N[C@@H](CCCCN)C(=O)N[C@@H](Cc1ccccc1)CN(CC(N)=O)C(=O)CCCN
MIC [15]: 4 µg/mL (≈ 6.07 µM)
MIC [16]: 2 µg/mL (≈ 3.04 µM)
MIC [17]: 2 µg/mL (≈ 3.04 µM)
MIC [18]: 2 µg/mL (≈ 3.04 µM)
MIC [19]: 2 µg/mL (≈ 3.04 µM)
HC50 at 10 min [20]: 150 µg/mL

Compound: COC(=O)[C@@H]1CCCCc2cc3ccccc3c(c2OC)-c2c(OC)c(cc3ccccc23)CC(NC(C)=O)C(=O)N[C@H](CCCCN)C(=O)N1 (some centres undefined)
MIC [1]: 15 µg/mL (≈ 21.5 µM)

Compound: N=C(N)NCCC[C@@H]1NC(=O)[C@H](CCCNC(=N)N)NC(=O)[C@H](CCCNC(=N)N)NC(=O)[C@H](Cc2ccc3ccccc3c2)NC(=O)[C@H](Cc2ccc3ccccc3c2)NC(=O)[C@H](Cc2ccc3ccccc3c2)NC(=O)[C@H](CCCNC(=N)N)NC1=O (cyclo(RRRR[2Nal][2Nal][2Nal]))
MIC [25]: 3.1 µg/mL (≈ 2.55 µM)
MIC [26]: 12.5 µg/mL (≈ 10.3 µM)

Compound: N=C(N)NCCC[C@@H]1NC(=O)[C@H](CCCNC(=N)N)NC(=O)[C@H](CCCNC(=N)N)NC(=O)[C@H](C(c2ccccc2)c2ccccc2)NC(=O)[C@H](C(c2ccccc2)c2ccccc2)NC(=O)[C@H](C(c2ccccc2)c2ccccc2)NC(=O)[C@H](CCCNC(=N)N)NC1=O (cyclo(RRRR[Dip][Dip][Dip]))
MIC [25]: 3.1 µg/mL (≈ 2.39 µM)
MIC [26]: 12.5 µg/mL (≈ 9.66 µM)

Compound: CC(C)(C)c1cc(C(C)(C)C)c2[nH]c(C(C)(C)C)c(C[C@H](NC(=O)[C@@H](N)CCCNC(=N)N)C(=O)N[C@@H](CCCNC(=N)N)C(=O)NCCc3ccccc3)c2c1 [LTX-109]
MIC [1]: 2.5 µg/mL (≈ 3.17 µM)
MIC [2]: 7.5 µg/mL (≈ 9.52 µM)

Second part, led by results:

MIC [1]: 2 µg/mL (≈ 2.27 µM)
Compound: CC(C)CCOC(=O)[C@H](CC(C)C)NC(=O)[C@@H](CCCNC(=N)N)NC(=O)[C@@H](CCCCN)NC(=O)COc1ccc2ccccc2c1-c1c(OCCC(C)C)ccc2ccccc12

MIC [1]: 2.5 µg/mL (≈ 4.05 µM)
MIC [2]: 10 µg/mL (≈ 16.2 µM)
Compound: CC(C)(C)c1cc(C(C)(C)C)c2[nH]c(C(C)(C)C)c(C[C@H](N)C(=O)N[C@@H](CCCNC(=N)N)C(=O)NCc3ccccc3)c2c1

MIC [1]: 5 µg/mL (≈ 7.15 µM)
MIC [2]: 20 µg/mL (≈ 28.6 µM)
Compound: COC(=O)[C@H](CCCNC(=N)N)NC(=O)[C@H](Cc1c(C(C)(C)C)[nH]c2c(C(C)(C)C)cc(C(C)(C)C)cc12)NC(=O)[C@@H](N)CCCNC(=N)N

MIC [3]: 1.9 µg/mL
MIC [4]: 1.9 µg/mL
MIC [5]: 1.9 µg/mL (≈ 2.18 µM)
Compound: CC(C)(C)c1ccc(CC(N)C(=O)NC(CCCNC(=N)N)C(=O)Nc2cc(NC(=O)C(CCCNC(=N)N)NC(=O)C(N)Cc3ccc(C(C)(C)C)cc3)cc(C(N)=O)c2)cc1 (centres undefined)

MIC [1]: 32 µg/mL (≈ 25.4 µM)
MIC [2]: 64 µg/mL (≈ 50.8 µM)
MIC [21]: 256 µg/mL (≈ 203 µM)
Compound: CC(C)NC(=O)N[C@H](CNC(=O)N[C@@H](CCCCN)CNC(=N)N[C@H](CNC(=O)N[C@H](CNC(=O)N[C@@H](CCCCN)CNC(=O)N[C@H](CNC(=O)N[C@@H](CCCCN)CNC(N)=O)Cc1c[nH]c2ccccc12)C(C)C)Cc1c[nH]c2ccccc12)C(C)C

MIC [1]: 12.5 µg/mL (≈ 12.8 µM)
MIC [2]: 12.5 µg/mL (≈ 12.8 µM)
Compound: CC(C)(C)c1cc(NC(=O)c2cc(OCCN)cc(C(=O)Nc3cc(C(C)(C)C)cc(NC(=O)[C@H](N)CCCNC(=N)N)c3SCCN)c2)c(SCCN)c(NC(=O)[C@H](N)CCCNC(=N)N)c1

MIC [2]: 19 µg/mL (≈ 25.2 µM)
MIC [22]: 66 µg/mL (≈ 87.4 µM)
Compound: CC(=O)c1cccc(C(=O)Nc2cc(C(C)(C)C)cc(NC(=O)c3cccc(C(=O)Nc4cc(C(C)(C)C)cc(N)c4SCCN)c3)c2SCCN)c1

MIC [1]: 0.2 µg/mL (≈ 0.205 µM)
MIC [2]: 3.1 µg/mL (≈ 3.18 µM)
MIC [21]: 13 µg/mL (≈ 13.3 µM)
Compound: COc1cc(OC)c(C(=O)Nc2cc(C(F)(F)F)cc(NC(=O)CCCCNC(=N)N)c2SCCN)cc1C(=O)Nc1cc(C(F)(F)F)cc(NC(=O)CCCCNC(=N)N)c1SCCN
EC50 [23]: > 2000 µg/mL
EC50 [24]: > 2000 µg/mL

MIC [1]: 10 µg/mL
MIC [2]: 15 µg/mL
Compound: H-WRWRW-NH2
